Measurements taken from patent US10131670B2, “Bicyclic heteroaryl derivatives as CFTR potentiators” (CYSTIC FIBROSIS FOUNDATION THERAPEUTICS, INC., priority 2016, dated 2018).

Tests used:
G551D = G551D (Homo sapiens, UniProt P13569, G551D); details: G551D patients; cited from earlier work
F508del = F508del (Homo sapiens (Human), UniProt P13569, DEL508-508); details: F508del homozygote patients; cited from earlier work
CFTR = CFTR (Homo sapiens, UniProt P13569); test: Ussing Chamber Electrophysiology Assay of CFTR Potentiation in CF Bronchial Epithelial Cells; format: cell-based; details: primary CF hBE cells, short-circuit current, scaled to DMSO (0%) and positive control potentiator (100%)
Method in brief: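 Primary F508del/F508del (27 °C) or G551D/F508del (35 °C) CF hBE cultures, >30 days at air/liquid interface, short-circuit current under voltage clamp in HEPES saline. Sequential amiloride 30 uM, forskolin 10 uM, four rising compound concentrations, CFTRinh-172 20 uM, 20-25 min apart; scaled to DMSO (0%) and maximal positive-control potentiator response (100%).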

F508del V470 CFTR = F508del V470 CFTR (Homo sapiens, UniProt P13569, DEL508-508); test: FRT Ion Flux Assay of F508del CFTR Potentiation; format: cell-based; details: FRT cells expressing F508del V470 CFTR and halide-sensitive YFP, forskolin 20 uM, 30 min
F508del V470 CFTR, sequence (P13569 with tags, fused parts or gaps DEL508-508): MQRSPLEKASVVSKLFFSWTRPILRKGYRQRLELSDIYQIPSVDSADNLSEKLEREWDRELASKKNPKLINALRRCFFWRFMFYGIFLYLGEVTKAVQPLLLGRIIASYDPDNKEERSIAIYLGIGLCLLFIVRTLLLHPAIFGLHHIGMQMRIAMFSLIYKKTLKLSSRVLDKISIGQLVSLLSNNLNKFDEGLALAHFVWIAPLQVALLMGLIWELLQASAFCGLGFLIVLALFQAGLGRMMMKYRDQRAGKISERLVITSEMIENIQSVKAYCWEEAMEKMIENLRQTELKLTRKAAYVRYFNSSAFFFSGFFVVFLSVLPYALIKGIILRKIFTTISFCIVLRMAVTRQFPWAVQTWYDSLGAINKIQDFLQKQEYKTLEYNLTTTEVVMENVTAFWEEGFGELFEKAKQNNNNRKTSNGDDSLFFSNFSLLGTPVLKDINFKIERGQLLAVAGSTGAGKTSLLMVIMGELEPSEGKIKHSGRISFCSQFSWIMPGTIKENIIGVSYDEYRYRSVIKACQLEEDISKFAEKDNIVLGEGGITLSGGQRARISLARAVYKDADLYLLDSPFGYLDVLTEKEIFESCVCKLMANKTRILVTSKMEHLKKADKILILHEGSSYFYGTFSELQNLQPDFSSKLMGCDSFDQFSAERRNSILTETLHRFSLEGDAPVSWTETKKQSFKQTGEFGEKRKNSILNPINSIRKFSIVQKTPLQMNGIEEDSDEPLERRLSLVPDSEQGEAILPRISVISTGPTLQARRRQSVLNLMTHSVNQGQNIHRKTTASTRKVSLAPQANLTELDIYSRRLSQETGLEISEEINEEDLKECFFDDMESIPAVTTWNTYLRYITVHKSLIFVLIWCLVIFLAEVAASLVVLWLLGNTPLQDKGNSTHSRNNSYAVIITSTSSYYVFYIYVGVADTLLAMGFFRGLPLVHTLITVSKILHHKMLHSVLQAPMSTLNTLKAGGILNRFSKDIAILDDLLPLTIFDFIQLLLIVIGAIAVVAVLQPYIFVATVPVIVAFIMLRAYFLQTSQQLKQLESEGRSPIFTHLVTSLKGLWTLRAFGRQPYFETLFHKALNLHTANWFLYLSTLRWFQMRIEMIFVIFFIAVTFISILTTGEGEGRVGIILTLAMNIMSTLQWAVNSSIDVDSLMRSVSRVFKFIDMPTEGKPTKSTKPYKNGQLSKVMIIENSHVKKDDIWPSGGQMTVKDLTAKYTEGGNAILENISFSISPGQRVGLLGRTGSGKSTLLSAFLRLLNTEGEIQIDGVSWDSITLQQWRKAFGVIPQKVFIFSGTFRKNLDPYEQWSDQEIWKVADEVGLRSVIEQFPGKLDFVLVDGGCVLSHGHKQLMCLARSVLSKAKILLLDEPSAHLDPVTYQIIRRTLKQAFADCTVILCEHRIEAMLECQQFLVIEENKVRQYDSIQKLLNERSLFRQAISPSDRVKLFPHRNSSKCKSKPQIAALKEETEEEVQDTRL

F508del, sequence (P13569 other isoform, or with tags, fused parts or gaps del F508-F508): as the sequence (P13569 with tags, fused parts or gaps DEL508-508) above

EC50 (CFTR) | EC50 (F508del V470 CFTR) | Structure (SMILES) | percent predicted FEV1 increased (G551D) | improvement with monotherapy (F508del)
 |  | CC(C)(C)c1cc(C(C)(C)C)c(NC(=O)c2c[nH]c3ccccc3c2=O)cc1O [Kalydeco®, ivacaftor] | 10-13% | did not lead to any appreciable improvement
177 nM | 479 nM | CCC(c1cn(-c2ccc(F)c(F)c2)nn1)c1cc(-c2cnc(C(F)(F)F)nc2)c2c(N)ncnn12 (single isomer, unassigned) [Example 64, 7-{1-[1-(3,4-difluorophenyl)-1H-1,2,3-triazol-4-yl]propyl}-5-[2-(trifluoromethyl)pyrimidin-5-yl]pyrrolo[2,1-f][1,2,4]triazin-4-amine] |  | 
2 nM | 3.36 nM | CCC(c1cn(-c2ccc(F)cc2F)nn1)c1cc(-c2cnc(C(F)(F)F)nc2)c2c(N)ncnn12 (single isomer, unassigned) [Example 60, 7-{1-[1-(2,4-difluorophenyl)-1H-1,2,3-triazol-4-yl]propyl}-5-[2-(trifluoromethyl)pyrimidin-5-yl]pyrrolo[2,1-f][1,2,4]triazin-4-amine] |  | 
19.8 nM | 26 nM | CC(c1cn(-c2cc(F)ccc2F)nn1)c1cc(-c2cnc(C(F)(F)F)nc2)c2c(N)ncnn12 (single isomer, unassigned) [Example 98, 7-{1-[1-(2,5-difluorophenyl)-1H-1,2,3-triazol-4-yl]ethyl}-5-[2-(trifluoromethyl)pyrimidin-5-yl]pyrrolo[2,1-f][1,2,4]triazin-4-amine] |  | 
7.48 nM | 8.76 nM | CC(c1cn(-c2ccc(F)cc2F)nn1)c1cc(-c2cnc(C(F)(F)F)nc2)c2c(N)ncnn12 (single isomer, unassigned) [Example 56, 7-{1-[1-(2,4-difluorophenyl)-1H-1,2,3-triazol-4-yl]ethyl}-5-[2-(trifluoromethyl)pyrimidin-5-yl]pyrrolo[2,1-f][1,2,4]triazin-4-amine] |  | 
